Test results reported in patent US9988400B2 (Genentech, Inc., priority 2013, dated 2018).

Target: T1, HEK cells stably transfected with tetracycline inducible hNR1 and hNR2A (Homo sapiens, UniProt Q05586+Q12879)
T1 construct: expressed in transfected cells; host or cells: HEK cells, stably transfected, tetracycline/doxycycline inducible
Assay: Assay 1: Cell-Based Assay, cytosolic calcium response to positive allosteric modulators (with 30 μM glycine and 300 nM L-glutamate, EC30)
Details: for EC50: cytosolic calcium response, with 30 μM glycine and 300 nM L-glutamate (EC30), — = no plateau was reached; for Max %: responses scaled relative to 100 μM L-glutamate maximal response (100%) and 0 μM L-glutamate (0%)
Experimental: Assay 1: Cell-Based Assay
HEK cells stably transfected with tetracycline inducible hNR1 and hNR2A were seeded into clear bottom 384 well poly-D-lysine coated plates (2.5×10^4 cells per well) in Minimum Essential Media (MEM; without L-) including 7.5 μg mL^−1 doxycycline and 500 μM (+)-ketamine. The cells were incubated at 37° C. in 5% CO2 for 24 h. For measurement of changes in cytosolic calcium, the seeding media was removed and the cells incubated at 37° C. for 60 min with 1× Becton Dickinson Calcium Assay Kit reagent in Hanks Balanced Salt Solution (HBSS; w/o magnesium, including 1.8 mM calcium, 0.65 mg ml^−1 probenecid and 10 μM (+)-ketamine, pH 7.15) then allowed to equilibrate to rt for 30 min. Concentration-effect curves to Positive Allosteric Modulators (PAMs) were constructed by adding different concentrations (with 30 μM glycine and 300 nM L-glutamate (EC30)) to different wells in HBSS. Compounds were added after a 10 second baseline read and maximum level of relative fluorescence units (RFU) was measured over a 5 min period. Responses were scaled relative to 100 μM L-glutamate maximal response (100%) and 0 μM L-glutamate (0%). EC50 values are provided for compounds reaching maximal response plateaus, and the max % (EC50 (- -)) only if no plateau was reached.
A four-parameter Hill equation was fitted to individual concentration-effect curves:
[formula] in which Y, S0, Sinf, AC50, n and c were effect, lower-asymptote, upper-asymptote, mid-point location, slope parameter, and concentration respectively.

T1 sequence (Q12879 23-1464, other chains not shown): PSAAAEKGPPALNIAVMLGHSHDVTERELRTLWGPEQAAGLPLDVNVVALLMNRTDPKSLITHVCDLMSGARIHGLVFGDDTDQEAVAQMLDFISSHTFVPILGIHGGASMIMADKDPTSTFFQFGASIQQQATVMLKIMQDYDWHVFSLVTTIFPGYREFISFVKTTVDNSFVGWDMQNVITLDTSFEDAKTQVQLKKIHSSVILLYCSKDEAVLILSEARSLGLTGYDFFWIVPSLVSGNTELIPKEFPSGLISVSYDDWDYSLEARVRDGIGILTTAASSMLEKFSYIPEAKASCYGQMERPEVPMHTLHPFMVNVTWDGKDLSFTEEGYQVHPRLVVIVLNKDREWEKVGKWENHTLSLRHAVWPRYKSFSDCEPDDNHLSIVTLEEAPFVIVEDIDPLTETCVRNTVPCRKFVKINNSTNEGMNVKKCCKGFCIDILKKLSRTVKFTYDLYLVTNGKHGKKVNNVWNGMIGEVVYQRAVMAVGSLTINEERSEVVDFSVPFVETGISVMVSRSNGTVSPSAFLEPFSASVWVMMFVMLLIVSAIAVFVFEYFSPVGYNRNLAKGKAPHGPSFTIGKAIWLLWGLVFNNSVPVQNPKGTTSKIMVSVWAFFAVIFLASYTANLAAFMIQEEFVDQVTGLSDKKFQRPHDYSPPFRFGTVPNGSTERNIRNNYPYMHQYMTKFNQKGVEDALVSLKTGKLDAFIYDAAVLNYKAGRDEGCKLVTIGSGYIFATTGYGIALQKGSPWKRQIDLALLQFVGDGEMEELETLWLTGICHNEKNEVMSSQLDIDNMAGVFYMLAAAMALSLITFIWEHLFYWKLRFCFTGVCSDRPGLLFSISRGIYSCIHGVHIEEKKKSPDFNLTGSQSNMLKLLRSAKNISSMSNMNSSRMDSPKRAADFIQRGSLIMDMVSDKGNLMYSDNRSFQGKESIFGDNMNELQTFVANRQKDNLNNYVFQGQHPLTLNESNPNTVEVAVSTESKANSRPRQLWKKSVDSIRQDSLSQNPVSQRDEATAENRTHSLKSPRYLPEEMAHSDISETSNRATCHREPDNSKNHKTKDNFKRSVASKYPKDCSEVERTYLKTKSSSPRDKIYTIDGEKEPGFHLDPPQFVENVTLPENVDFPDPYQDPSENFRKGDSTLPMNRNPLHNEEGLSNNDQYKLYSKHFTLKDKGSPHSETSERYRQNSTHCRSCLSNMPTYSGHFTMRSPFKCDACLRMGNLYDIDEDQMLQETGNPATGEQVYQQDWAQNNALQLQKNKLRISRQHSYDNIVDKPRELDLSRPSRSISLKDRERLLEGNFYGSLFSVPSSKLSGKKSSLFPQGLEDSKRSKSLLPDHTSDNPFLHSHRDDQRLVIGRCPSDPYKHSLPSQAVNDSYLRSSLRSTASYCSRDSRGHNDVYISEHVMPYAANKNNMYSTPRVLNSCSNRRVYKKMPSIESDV

EC50 (Table 2) [µM] | Max % (Table 2) [%] | EC50 (Table 3) [µM] | Compound
3.1 | 133 |  | Cc1sc2nc(Cn3nc(C(F)(F)F)c(F)c3C3CC3)cc(=O)n2c1C1CC1CO (stereo not drawn) [Example 15.10, 7-((5-cyclopropyl-4-fluoro-3-(trifluoromethyl)-1H-pyrazol-1-yl)methyl)-3-(trans-2-(hydroxymethyl)cyclopropyl)-2-methyl-5H-thiazolo[3,2-a]pyrimidin-5-one]
11.7 | 110 |  | CNC(=O)c1c(C)sc2nc(Cn3nc(C4CC4)cc3C(F)(F)F)cc(=O)n12 [Example 16.2, 7-((3-cyclopropyl-5-(trifluoromethyl)-1H-pyrazol-1-yl)methyl)-N,2-dimethyl-5-oxo-5H-thiazolo[3,2-a]pyrimidine-3-carboxamide]
 |  | 0.42 | Cc1sc2nc(Cn3nc(C(F)(F)F)cc3Cl)cc(=O)n2c1C1CC1CO (single isomer, unassigned) [compound 137]
 |  | 20.5 | CC(=O)c1c(C(F)(F)F)sc2nc(Cc3cccc(C#N)c3F)cc(=O)n12 [compound 257, 3-[[3-acetyl-5-oxo-2-(trifluoromethyl)thiazolo[3,2-a]pyrimidin-7-yl]methyl]-2-fluoro-benzonitrile]
 |  | 0.354 | Cc1sc2nc(Cn3nc(Cl)cc3C(F)(F)F)cc(=O)n2c1C(=O)C(C)C [compound 178, 7-[[3-chloro-5-(trifluoromethyl)pyrazol-1-yl]methyl]-2-methyl-3-(2-methylpropanoyl)thiazolo[3,2-a]pyrimidin-5-one]
 |  | 0.814 | Cc1sc2nc(Cn3nc(C(F)(F)F)cc3Cl)cc(=O)n2c1-c1ncc[nH]1 [compound 170, 7-[[5-chloro-3-(trifluoromethyl)pyrazol-1-yl]methyl]-3-(1H-imidazol-2-yl)-2-methyl-thiazolo[3,2-a]pyrimidin-5-one]
2.3 | 140 |  | CNC(=O)c1c(C)sc2nc(Cn3nc(C(F)(F)F)cc3C3CC3)cc(=O)n12 [Example 16.1, 7-((5-cyclopropyl-3-(trifluoromethyl)-1H-pyrazol-1-yl)methyl)-N,2-dimethyl-5-oxo-5H-thiazolo[3,2-a]pyrimidine-3-carboxamide]
 |  | 11.2 | CC1CC1c1c(C(F)(F)F)sc2nc(Cc3cccc(C#N)c3F)cc(=O)n12 (centres unmarked) [compound 84, 2-fluoro-3-[[3-(2-methylcyclopropyl)-5-oxo-2-(trifluoromethyl)thiazolo[3,2-a]pyrimidin-7-yl]methyl]benzonitrile]
 | 103 |  | CNC(=O)c1c(C)sc2nc(Cc3ccc(F)c(Cl)c3)cc(=O)n12 [Example 21.47, 7-[(3-chloro-4-fluoro-phenyl)methyl]-N,2-dimethyl-5-oxo-thiazolo[3,2-a]pyrimidine-3-carboxamide]
41 | 56.2 |  | CCNC(=O)c1c(C2CC2)sc2nc(COc3ccc(F)cc3)cc(=O)n12 [Example 3.1, 2-cyclopropyl-N-ethyl-7-((4-fluorophenoxy)methyl)-5-oxo-5H-thiazolo[3,2-a]pyrimidine-3-carboxamide]
 |  | 2.94 | CC[C@H](C)NC(=O)c1c(C)sc2nc(Cc3cccc(C(F)(F)F)c3F)cc(=O)n12 [compound 180, 7-[[2-fluoro-3-(trifluoromethyl)phenyl]methyl]-2-methyl-N-[(1S)-1-methylpropyl]-5-oxo-thiazolo[3,2-a]pyrimidine-3-carboxamide]
 |  | 21.2 | O=c1cc(Cn2nc(C(F)(F)F)cc2Cl)nc2scc(Cl)n12 [compound 235, 3-chloro-7-[[5-chloro-3-(trifluoromethyl)pyrazol-1-yl]methyl]thiazolo[3,2-a]pyrimidin-5-one]
2.4 | 168 |  | CCN(Cc1cc(=O)n2c(-c3cncnc3)c(C)sc2n1)c1cccc(F)c1 [Example 5.5, 7-((ethyl(3-fluorophenyl)amino)methyl)-2-methyl-3-(pyrimidin-5-yl)-5H-thiazolo[3,2-a]pyrimidin-5-one]
30.4 |  |  | CC1(C)CCc2sc3nc(Cn4nc(C5CC5)cc4C(F)(F)F)cc(=O)n3c21 [Example 27.8, 10-{[3-cyclopropyl-5-(trifluoromethyl)-1H-pyrazol-1-yl]methyl}-3,3-dimethyl-7-thia-1,9-diazatricyclo[6.4.0.0^{2,6}]dodeca-2(6),8,10-trien-12-one]
10.8 | 137 |  | Cc1sc2nc(Cc3cc(C#N)ccc3F)cc(=O)n2c1[C@@H]1C[C@H]1CO (relative stereo) [Example 20.7, 4-fluoro-3-((3-(trans-2-(hydroxymethyl)cyclopropyl)-2-methyl-5-oxo-5H-thiazolo[3,2-a]pyrimidin-7-yl)methyl)benzonitrile]
 |  | 1.03 | Cc1sc2nc(Cn3nc(Cl)cc3C(F)(F)F)cc(=O)n2c1C1CC1 [compound 117, 7-[[3-chloro-5-(trifluoromethyl)pyrazol-1-yl]methyl]-3-cyclopropyl-2-methyl-thiazolo[3,2-a]pyrimidin-5-one]
 | 58.5 |  | CCNC(=O)c1c(C)sc2nc(Cc3cccc(C(F)(F)F)n3)cc(=O)n12 [Example 21.18, N-ethyl-2-methyl-5-oxo-7-((6-(trifluoromethyl)pyridine-2-yl)methyl)-5H-thiazolo[3,2-a]pyrimidine-3-carboxamide]
 | 103 |  | COCC1CC1c1c(C)sc2nc(COc3ccc(F)cc3)cc(=O)n12 (centres unmarked) [Example 4.27, 7-(4-Fluorophenoxymethyl)-3-[2-(methoxymethyl)cyclopropyl]-2-methyl-5H-[1,3]thiazolo[3,2-a]pyrimidin-5-one]
 |  | 2.25 | CNC(=O)Cc1c(C)sc2nc(Cn3nc(C(F)(F)F)cc3C3CC3)cc(=O)n12 [compound 18, 2-[7-[[5-cyclopropyl-3-(trifluoromethyl)pyrazol-1-yl]methyl]-2-methyl-5-oxo-thiazolo[3,2-a]pyrimidin-3-yl]-N-methyl-acetamide]
 | 56.5 |  | CONC(=O)c1c(C)sc2nc(COc3ccc(F)cc3)cc(=O)n12 [Example 1.16, 7-((4-fluorophenoxy)methyl)-N-methoxy-2-methyl-5-oxo-5H-thiazolo[3,2-a] pyrimidine-3-carboxamide]
0.867 | 160 |  | CCN(Cc1cc(=O)n2c([C@@H]3C[C@H]3CO)c(C)sc2n1)c1ccccn1 (relative stereo) [Example 5.7, 7-((ethyl(pyridine-2-yl)amino)methyl)-3-(trans-2-(hydroxymethyl)cyclopropyl)-2-methyl-5H-thiazolo[3,2-a] pyrimidin-5-one]
1.1 | 147 |  | CCN(Cc1cc(=O)n2c(C(F)(F)F)c(C)sc2n1)c1ccc(F)cc1 [Example 5.38, 7-((ethyl(4-fluorophenyl)amino)methyl)-2-methyl-3-(trifluoromethyl)-5H-thiazolo[3,2-a]pyrimidin-5-one]
 |  | 1.34 | Cc1sc2nc(Cn3nc(C(F)(F)F)cc3Cl)cc(=O)n2c1C#N [compound 114, 7-[[5-chloro-3-(trifluoromethyl)pyrazol-1-yl]methyl]-2-methyl-5-oxo-thiazolo[3,2-a]pyrimidine-3-carbonitrile]
 |  | 7.7 | O=c1cc(Cn2nc(C(F)(F)F)cc2Cl)nc2sc(C(F)(F)F)c(-c3ccn[nH]3)n12 [compound 247, 7-[[5-chloro-3-(trifluoromethyl)pyrazol-1-yl]methyl]-3-(1H-pyrazol-5-yl)-2-(trifluoromethyl)thiazolo[3,2-a]pyrimidin-5-one]
